This passage reports DC50 and Dmax results from US12427144B2, “Compounds and methods for the targeted degradation of androgen receptor” (Arvinas Operations, Inc., priority 2019, dated 2025).

The target in one experiment is T1, androgen receptor (Homo sapiens, UniProt P10275).
T1 construct: endogenous in cells; host or cells: VCaP
T1 sequence (P10275 1-920): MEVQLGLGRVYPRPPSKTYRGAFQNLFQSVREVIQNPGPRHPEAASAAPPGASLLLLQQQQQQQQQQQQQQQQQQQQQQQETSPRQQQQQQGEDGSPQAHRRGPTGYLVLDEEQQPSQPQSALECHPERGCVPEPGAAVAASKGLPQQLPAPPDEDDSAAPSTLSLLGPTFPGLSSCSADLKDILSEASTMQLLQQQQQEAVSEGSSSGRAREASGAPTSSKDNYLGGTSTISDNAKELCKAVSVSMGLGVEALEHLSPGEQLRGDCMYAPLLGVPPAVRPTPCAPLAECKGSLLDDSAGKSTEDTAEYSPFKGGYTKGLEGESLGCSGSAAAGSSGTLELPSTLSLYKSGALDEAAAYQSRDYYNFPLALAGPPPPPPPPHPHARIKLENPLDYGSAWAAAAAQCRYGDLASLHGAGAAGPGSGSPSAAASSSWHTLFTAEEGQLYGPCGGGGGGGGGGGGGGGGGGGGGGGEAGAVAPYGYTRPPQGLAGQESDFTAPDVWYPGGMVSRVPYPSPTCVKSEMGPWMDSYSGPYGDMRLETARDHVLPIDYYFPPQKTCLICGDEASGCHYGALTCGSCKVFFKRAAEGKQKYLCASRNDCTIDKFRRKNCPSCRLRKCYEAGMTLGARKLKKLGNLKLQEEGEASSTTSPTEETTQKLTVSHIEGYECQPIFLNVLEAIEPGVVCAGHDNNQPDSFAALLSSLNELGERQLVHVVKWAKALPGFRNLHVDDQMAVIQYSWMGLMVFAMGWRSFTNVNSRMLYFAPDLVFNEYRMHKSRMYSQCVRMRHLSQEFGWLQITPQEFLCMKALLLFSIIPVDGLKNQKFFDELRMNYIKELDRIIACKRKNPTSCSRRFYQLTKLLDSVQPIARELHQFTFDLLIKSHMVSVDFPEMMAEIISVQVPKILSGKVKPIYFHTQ
Briefly: AR ELISA assay (PathScan AR Sandwich ELISA), VCaP cells. The format is cell-based. The following applies: drug treatment 5 hours. The method, then: Compounds were evaluated in this assay in LNCaP and/or VCaP cells utilizing similar protocols. The protocols used with VCaP cells are described below. The androgen receptor ELISA assay was performed using PathScan AR Sandwich ELISA (Cell Signaling Catalog #12850) according to the following assay steps:
VCaP cells were seeded at 40,000 cells/well at a volume of 100 μL/well in VCaP assay medium [Phenol red free RPMI (Gibco Cat #11835-030); 5% Charcoal Stripped (Dextran treated) FBS (Omega Scientific, Cat #FB-04); 1% penstrep (Life Technologies, Gibco Cat #: 10378-016)] in Corning 3904 plates. The cells were incubated for a minimum of 3 days. Cells were dosed with PROTACs diluted in 0.01% DMSO and the drug treatment was allowed for 5 hours.
AR ELISA (Cell Signaling) was performed as follows. 1× Cell Signaling Cell lysis buffer was made (Catalogue #9803; comes with the kit). Media from the treated wells is aspirated, and 100 μL 1× cell lysis buffer/well is added. The cells were placed on a shaker for 10 minutes at 4° C. Twenty microliters of lysate was transferred to 100 μl of Diluent in ELISA plate (0.15 μg/ml-[…]). The lysate-diluent mixture was shaken for 30 minutes at 37° C. Allow mouse AR antibody, anti-mouse antibody, TMB, and STOP solution to come to room temperature. The 1×ELISA buffer included in kit was made and loaded in the reservoir. Media from the plates was discarded, the ELISA plate tapped hard on paper towel, and washed 4×200 μl ELISA wash buffer using a plate washer.
One-hundred (100) […] of mouse AR detection Ab was added; the plates were covered and shaken at 37° C. for 1 hour; media was discarded from the plates, the plates were tapped on a paper towel, washed 4× with 200 μL ELISA wash buffer with a plate washer.
One-hundred (100) […] of anti-mouse—HRP conjugated Ab (comes with the kit) was added; the plates were covered and shaken at 37° C. for 30 minutes; the TMB reagent was allowed to come to room temperature; the media was discard from the plate, the plates were tapped on paper towel, washed 4× with 200 μL of ELISA wash buffer; the plates were tapped the plates on paper towel. One-hundred (100) L of TMB was added and the plates shaken for 2 minutes—while watching for color development. One-hundred (100) L Stop solution was added when light blue color developed. Plates were shaken and read at 450 nm.
Progression of prostate cancer in patients treated with anti-androgen therapy usually involves one of several mechanisms of enhanced Androgen Receptor (AR) signaling, including increased intratumoral androgen synthesis, increased AR expression and AR mutations. PROTACs (PROteolysis TArgeting Chimera), which use bi-functional molecules that simultaneously bind a target of choice and an E3 ligase, cause ubiquitination via induced proximity and degradation of the targeted, pathological protein. As opposed to traditional target inhibition, which is a competitive process, degradation is a progressive process. As such, it is less susceptible to increases in endogenous ligand, target expression, or mutations in the target. Thus, this technology appears to be ideal for addressing the mechanisms of AR resistance in patients with prostate cancer. Data was analyzed and plotted using GraphPad Prism software.

A further experiment has as its target T2, Androgen Receptor (AR) (Homo sapiens, UniProt P10275).
T2 construct: endogenous in cells; host or cells: VCaP
T2 sequence (P10275 1-920): T1 sequence (P10275 1-920)
Briefly: AR immunofluorescence staining, high content imager, VCaP cells. The format is cell-based. The conditions noted are these: for DC50: AR degradation by immunofluorescence; for Dmax: maximal AR degradation. A digest of the protocol:
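VCaP cells treated with compound, fixed in 4% PFA (8% 2× solution added directly for low-adherence lines), permeabilised with 0.1% Triton X-100 and blocked. Stained overnight at 4° C with anti-AR antibody, then FITC anti-rabbit secondary plus phalloidin and DAPI/Hoechst. Read by high-content imaging.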

Each structure is given as a SMILES string. Bounds are passed on as bounds.

At androgen receptor, `Cc1cc(O[C@H]2C(C)(C)[C@H](NC(=O)c3ccc(N4CCC(CN5CCN(c6ccc(C(=O)NC7CCC(=O)NC7=O)cc6)CC5)CC4)nn3)C2(C)C)cc(C)c1C#N` (stereo partly drawn) [Compound 2, N-((1R,3R)-3-(4-cyano-3,5-dimethylphenoxy)-2,2,4,4-tetramethylcyclobutyl)-6-(4-((4-(4-((2,6-dioxopiperidin-3-yl)carbamoyl)phenyl)piperazin-1-yl)methyl)piperidin-1-yl)pyridazine-3-carboxamide] displayed a DC50 of less than 1 nM and a Dmax of no less than 70%.

With `COCCN(C[C@H]1CN(c2ccc(C(=O)N[C@H]3C(C)(C)[C@H](Oc4cc(C)c(C#N)c(C)c4)C3(C)C)cc2)CCO1)[C@H]1C[C@H](Oc2ccc(C(=O)N[C@H]3CCC(=O)NC3=O)c(F)c2)C1` [Compound 67, 4-[(2S)-2-{[(2-methoxyethyl)[(1r,3r)-3-(4-{[(3S)-2,6-dioxopiperidin-3-yl]carbamoyl}-3-fluorophenoxy)cyclobutyl]amino]methyl}morpholin-4-yl]-N-[(1r,3r)-3-(4-cyano-3,5-dimethylphenoxy)-2,2,4,4-tetramethylcyclobutyl]benzamide], on Androgen Receptor (AR), the DC50 was in the range of 1 to 10 nM and the Dmax is no less than 70%.

As for `Cc1cc(O[C@H]2C(C)(C)[C@H](NC(=O)c3ccc(N4CCC5(CC4)CN([C@H]4C[C@H](Oc6ccc(C(=O)NC7CCC(=O)NC7=O)cc6)C4)CCO5)cc3)C2(C)C)cc(C)c1C#N` (some centres unmarked) [Compound 68, N-[(1r,3r)-3-(4-cyano-3,5-dimethylphenoxy)-2,2,4,4-tetramethylcyclobutyl]-4-{4-[(1r,3r)-3-{4-[(2,6-dioxopiperidin-3-yl)carbamoyl]phenoxy}cyclobutyl]-1-oxa-4,9-diazaspiro[5.5]undecan-9-yl}benzamide], at Androgen Receptor (AR), the DC50 lay within 1 to 10 nM and the Dmax fell in the range of 50 to 70%.

In the case of `COc1cc(O[C@H]2C(C)(C)[C@H](NC(=O)c3ccc(N4CCC(CN5CCN(c6ccc(F)c(C(=O)N[C@H]7CCC(=O)NC7=O)c6)CC5)CC4)cc3)C2(C)C)ccc1C#N` [Compound 69, N-[(3S)-2,6-dioxopiperidin-3-yl]-2-fluoro-5-(4-{[1-(4-{[(1r,3r)-3-(4-cyano-3-methoxyphenoxy)-2,2,4,4-tetramethylcyclobutyl]carbamoyl}phenyl)piperidin-4-yl]methyl}piperazin-1-yl)benzamide], on Androgen Receptor (AR), the DC50 lay within 10 to 100 nM and the Dmax was no less than 70%.

For the molecule `Cc1cc(O[C@H]2C(C)(C)[C@H](NC(=O)c3ccc(N4CC(CN5CC(c6ccc(C(=O)N[C@H]7CCC(=O)NC7=O)c(F)c6)C5)C4)cc3)C2(C)C)cc(C)c1C#N` [Compound 71, N-[(3S)-2,6-dioxopiperidin-3-yl]-2-fluoro-4-(1-{[1-(4-{[(1r,3r)-3-(4-cyano-3,5-dimethylphenoxy)-2,2,4,4-tetramethylcyclobutyl]carbamoyl}phenyl)azetidin-3-yl]methyl}azetidin-3-yl)benzamide], at Androgen Receptor (AR), the DC50 is less than 1 nM and the Dmax fell in the range of 50 to 70%.

Take `Cc1cc(O[C@H]2C(C)(C)[C@H](NC(=O)c3ccc(N4CCC(CN5CCOCCCCCOc6ccc(C(=O)NC7CCC(=O)NC7=O)cc6O[C@H]6C[C@H]5C6)CC4)cc3)C2(C)C)cc(C)c1C#N` (some centres unmarked) [Compound 72, (1r,19r)-N-(2,6-dioxopiperidin-3-yl)-18-{[1-(4-{[(1r,3r)-3-(4-cyano-3,5-dimethylphenoxy)-2,2,4,4-tetramethylcyclobutyl]carbamoyl}phenyl)piperidin-4-yl]methyl}-2,9,15-trioxa-18-azatricyclo[17.1.1.0^3,8]henicosa-3(8),4,6-triene-5-carboxamide]: at Androgen Receptor (AR), the DC50 lay within 1 to 10 nM and the Dmax is less than 50%.

With `Cc1cc(O[C@H]2C(C)(C)[C@H](NC(=O)c3ccc(N4CCC(O[C@H]5C[C@H](Oc6ccc(C(=O)N[C@H]7CCC(=O)NC7=O)c(F)c6)C5)CC4)cc3)C2(C)C)cc(C)c1C#N` [Compound 73, N-[(1r,3r)-3-(4-cyano-3,5-dimethylphenoxy)-2,2,4,4-tetramethylcyclobutyl]-4-{4-[(1r,3r)-3-(4-{[(3S)-2,6-dioxopiperidin-3-yl]carbamoyl}-3-fluorophenoxy)cyclobutoxy]piperidin-1-yl}benzamide], at Androgen Receptor (AR), the DC50 was in the range of 1 to 10 nM and the Dmax was less than 50%.

In the case of `Cc1cc(O[C@H]2C(C)(C)[C@H](NC(=O)c3ccc(N4CCC(CN5CCOCCCCOc6ccc(C(=O)NC7CCC(=O)NC7=O)cc6O[C@H]6C[C@H]5C6)CC4)cc3)C2(C)C)cc(C)c1C#N` (some centres unmarked) [Compound 74, (1r,18r)-N-(2,6-dioxopiperidin-3-yl)-17-{[1-(4-{[(1r,3r)-3-(4-cyano-3,5-dimethylphenoxy)-2,2,4,4-tetramethylcyclobutyl]carbamoyl}phenyl)piperidin-4-yl]methyl}-2,9,14-trioxa-17-azatricyclo[16.1.1.0^3,8]icosa-3(8),4,6-triene-5-carboxamide], on Androgen Receptor (AR), the DC50 is less than 1 nM and the Dmax is less than 50%.

On Androgen Receptor (AR), `Cc1cc(O[C@H]2C(C)(C)[C@H](NC(=O)c3ccc(N4CCO[C@@H](CN5CCN(c6ccc(C(=O)N[C@@H]7CCC(=O)NC7=O)c(F)c6)CC5)C4)cc3)C2(C)C)cc(C)c1C#N` [Compound 75, N-[(3R)-2,6-dioxopiperidin-3-yl]-2-fluoro-4-(4-{[(2S)-4-(4-{[(1r,3r)-3-(4-cyano-3,5-dimethylphenoxy)-2,2,4,4-tetramethylcyclobutyl]carbamoyl}phenyl)morpholin-2-yl]methyl}piperazin-1-yl)benzamide] yielded a DC50 of 1 to 10 nM and a Dmax of less than 50%.

Regarding `COc1cc(O[C@H]2C[C@H](N3CCOC4(CCN(c5ccc(C(=O)N[C@H]6C(C)(C)[C@H](Oc7cc(C)c(C#N)c(C)c7)C6(C)C)cc5)CC4)C3)C2)cc(C(=O)NC2CCC(=O)NC2=O)c1` (some centres unmarked) [Compound 76, N-(2,6-dioxopiperidin-3-yl)-3-methoxy-5-[(1r,3r)-3-[9-(4-{[(1r,3r)-3-(4-cyano-3,5-dimethylphenoxy)-2,2,4,4-tetramethylcyclobutyl]carbamoyl}phenyl)-1-oxa-4,9-diazaspiro[5.5]undecan-4-yl]cyclobutoxy]benzamide], on Androgen Receptor (AR), the DC50 lay in the range of 1 to 10 nM and the Dmax is less than 50%.
